Assay results from patent US6534524B1, “Indazole compounds and pharmaceutical compositions for inhibiting protein kinases, and methods for their use” (Agouron Pharmaceuticals, Inc., priority 1999, dated 2003).
pIC50: −log10 of the molar value. Read-outs that look alike come from different tables or passages of the source.

Tested on: human umbilical vein endothelial cells (HUVEC)
Assay: HUVEC proliferation assay (VEGF-stimulated, MTT);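 as to % inhibition of the proliferation of HUVEC: relative to VEGF-stimulated control minus starvation-medium baseline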
Type: cell-based
Conditions: for % inhibition: Library III, HUVEC proliferation, nominal concentration of 0.5 nM; for % inhibition / % inhibition of the proliferation of HUVEC: crude reaction mixtures; for pIC50: Homo sapiens, HUVEC
Description: HUVEC Proliferation Assay
This assay determines the ability of a test compound to inhibit the growth factor-stimulated proliferation of human umbilical vein endothelial cells (“HUVEC”). HUVEC cells (passage 3-4, Clonetics, Corp.) were thawed into EGM2 culture medium (Clonetics Corp) in T75 flasks. Fresh EGM2 medium was added to the flasks 24 hours later. Four or five days later, cells were exposed to another culture medium (F12K medium supplemented with 10% fetal bovine serum (FBS), 60 μg/mL endothelial cell growth supplement (ECGS), and 0.1 mg/mL heparin). Exponentially-growing HUVEC cells were used in experiments thereafter. Ten to twelve thousand HUVEC cells were plated in 96-well dishes in 100 μl of rich, culture medium (described above). The cells were allowed to attach for 24 hours in this medium. The medium was then removed by aspiration and 105 μl of starvation media (F12K+1% FBS) was added to each well. After 24 hours, 15 μl of test agent dissolved in 1% DMSO in starvation medium or this vehicle alone was added into each treatment well; the final DMSO concentration was 0.1%. One hour later, 30 μl of VEGF (30 ng/mL) in starvation media was added to all wells except those containing untreated controls; the final VEGF concentration was 6 ng/mL. Cellular proliferation was quantified 72 hours later by MTT dye reduction, at which time cells were exposed for 4 hours MTT (Promega Corp.).
For screening compound library plates, one or two concentrations (one well per concentration) were employed, and the % inhibition was calculated by the following formula:
% inhibition=(control−test)÷(control−starvation)
% inhibition=(control-treated)/(control-starvation)×100

[1] = Library II, Y=S, 0.5 mM (column head; text: nominal 0.5 nM)
[2] = Library II, Y=S, 2 mM (column head; text: nominal 2 nM)
[3] = + albumin, read-out: HUVEC + albumin IC50
[4] = Library I, Y = CO, nominal concentration of 10 nM
[5] = Library I, Y = NH, nominal concentration of 10 nM
[6] = Library I, Y = O, nominal concentration of 10 nM

`Cc1nnc(NC(=O)c2ccccc2Sc2ccc3c(/C=C/c4ccccn4)n[nH]c3c2)nc1C` was tested, and the “% inhibition” value was −20%.
In the case of `CNC(=O)c1ccccc1Sc1ccc2c(/C=C/c3ccccn3)n[nH]c2c1` [drawing 635], the “% inhibition of the proliferation of HUVEC” value (shortened to “% inhibition … of HUVEC”) [1] was 8% and the “% inhibition … of HUVEC” value [2] was 21%.
In the case of `Cc1cnc(NC(=O)c2ccccc2Sc2ccc3c(/C=C/c4ccccn4)n[nH]c3c2)s1`, the “% inhibition … of HUVEC” value [1] was 20% and the “% inhibition … of HUVEC” value [2] was 92%.
Work on `CNC(=O)c1cccc(F)c1Sc1ccc2c(/C=C/c3ccccn3)n[nH]c2c1` [Example 37(d), 6-[6-Fluoro-2-(methylcarbamoyl)phenylsulfanyl]-3-E-[2-(pyridin-2-yl)ethenyl]-1H-indazole] yielded a pIC50 [3] of under 7.00.
For `O=C(Nc1cccc2cnccc12)c1ccccc1Sc1ccc2c(/C=C/c3ccccn3)n[nH]c2c1`, the “% inhibition” value was 1%.
For `CCOC(=O)c1ccccc1NC(=O)c1ccccc1Sc1ccc2c(/C=C/c3ccccn3)n[nH]c2c1`, the “% inhibition” value was −4%.
With `O=C(Nc1ccc2[nH]nnc2c1)c1ccccc1Sc1ccc2c(/C=C/c3ccccn3)n[nH]c2c1` the “% inhibition” value was −7%.
For `N#CCNC(=O)c1ccccc1Sc1ccc2c(/C=C/c3ccccn3)n[nH]c2c1`, the “% inhibition … of HUVEC” value [1] was 18% and the “% inhibition … of HUVEC” value [2] was 40%.
`COc1ccc(NC(=O)c2ccccc2Sc2ccc3c(/C=C/c4ccccn4)n[nH]c3c2)c(C)c1` was tested, and the “% inhibition” value was 0%.
With `O=C(Nc1nccs1)c1ccccc1Sc1ccc2c(/C=C/c3ccccn3)n[nH]c2c1` [drawing 740] the “% inhibition … of HUVEC” value [1] was 33% and the “% inhibition … of HUVEC” value [2] was 94%.
In the case of `COc1ccc(Cl)cc1NC(=O)c1ccccc1Sc1ccc2c(/C=C/c3ccccn3)n[nH]c2c1`, the “% inhibition” value was −4%.
With `O=C(Nc1cccc(O)c1)c1ccccc1Sc1ccc2c(/C=C/c3ccccn3)n[nH]c2c1` the “% inhibition” value was −6%.
With `O=C(NC1CCCCC1)c1ccccc1Sc1ccc2c(/C=C/c3ccccn3)n[nH]c2c1` the “% inhibition … of HUVEC” value [1] was 12% and the “% inhibition … of HUVEC” value [2] was 76%.
In the case of `Cc1ccc(NC(=O)c2ccccc2Sc2ccc3c(/C=C/c4ccccn4)n[nH]c3c2)c(F)c1`, the “% inhibition” value was 2%.
`O=C(Nc1cc(-c2cccs2)n[nH]1)c1ccccc1Sc1ccc2c(/C=C/c3ccccn3)n[nH]c2c1` was tested, and the “% inhibition” value was −11%.
For `COc1ccc(NC(=O)c2ccc3c(-c4nc5ccccc5[nH]4)n[nH]c3c2)cc1O` [drawing 607], the “% inhibition … of HUVEC” value [1] was 19% and the “% inhibition … of HUVEC” value [2] was 89%.
With `Cc1cc(O)ccc1NC(=O)c1ccccc1Sc1ccc2c(/C=C/c3ccccn3)n[nH]c2c1` the “% inhibition” value was 12%.
With `O=C(Nc1cc(Cl)nc(Cl)c1)c1ccccc1Sc1ccc2c(/C=C/c3ccccn3)n[nH]c2c1` the “% inhibition” value was 0%.
For `Cc1csc(NC(=O)c2ccccc2Sc2ccc3c(/C=C/c4ccccn4)n[nH]c3c2)n1`, the “% inhibition … of HUVEC” value [1] was 15% and the “% inhibition … of HUVEC” value [2] was 95%.
With `O=C(NC[C@@H]1CCCO1)c1ccccc1Sc1ccc2c(/C=C/c3ccccn3)n[nH]c2c1` the “% inhibition” value was −11%.
With `N#Cc1[nH]cnc1NC(=O)c1ccccc1Sc1ccc2c(/C=C/c3ccccn3)n[nH]c2c1` the “% inhibition” value was −13%.
In the case of `CSCCC(CO)NC(=O)c1ccccc1Sc1ccc2c(C=Cc3ccccn3)n[nH]c2c1` (centres unmarked), the “% inhibition” value was −11%.
With `NC(=O)c1ccccc1NC(=O)c1ccccc1Sc1ccc2c(/C=C/c3ccccn3)n[nH]c2c1` the “% inhibition” value was 7%.
In the case of `CCc1ccnc(NC(=O)c2ccccc2Sc2ccc3c(/C=C/c4ccccn4)n[nH]c3c2)c1`, the “% inhibition” value was 20%.
With `O=C(O)CNC(=O)c1ccccc1Sc1ccc2c(/C=C/c3ccccn3)n[nH]c2c1` the “% inhibition … of HUVEC” value [1] was 8% and the “% inhibition … of HUVEC” value [2] was 23%.
With `COC(CNC(=O)c1ccccc1Sc1ccc2c(/C=C/c3ccccn3)n[nH]c2c1)OC` the “% inhibition … of HUVEC” value [1] was 47% and the “% inhibition … of HUVEC” value [2] was 89%.
In the case of `COc1cccc(CNC(=O)c2ccccc2Sc2ccc3c(/C=C/c4ccccn4)n[nH]c3c2)c1OC`, the “% inhibition” value was 10%.
With `O=C(NC[C@H](O)c1ccccc1)c1ccccc1Sc1ccc2c(/C=C/c3ccccn3)n[nH]c2c1` the “% inhibition” value was −34%.
`CCOC(=O)c1ccc(NC(=O)c2ccccc2Sc2ccc3c(/C=C/c4ccccn4)n[nH]c3c2)cc1` was tested, and the “% inhibition” value was −25%.
With `COC(CCCNC(=O)c1ccccc1Sc1ccc2c(/C=C/c3ccccn3)n[nH]c2c1)OC` the “% inhibition” value was 9%.
In the case of `CC(C)(C)c1nnc(NC(=O)c2ccccc2Sc2ccc3c(/C=C/c4ccccn4)n[nH]c3c2)s1`, the “% inhibition” value was −28%.
For `O=C(Nc1cccnc1)c1ccc2c(-c3nc4ccccc4[nH]3)n[nH]c2c1`, the “% inhibition … of HUVEC” value [4] was −2%, the “% inhibition … of HUVEC” value [5] was 17% and the “% inhibition … of HUVEC” value [6] was 25%.
With `O=C(NC1Cc2ccccc2C1)c1ccccc1Sc1ccc2c(/C=C/c3ccccn3)n[nH]c2c1` the “% inhibition” value was 7%.
`CCCCN(CC)CCNC(=O)c1ccccc1Sc1ccc2c(/C=C/c3ccccn3)n[nH]c2c1` was tested, and the “% inhibition … of HUVEC” value [1] was 2% and the “% inhibition … of HUVEC” value [2] was 6%.
`NC(=O)c1ccccc1Sc1ccc2c(/C=C/c3ccccn3)n[nH]c2c1` [Example 35(d), 6-(2-Carbamoylphenylsulfanyl)-3-E-[2-(pyridin-2-yl)ethenyl]-1H-indazole] was tested, and the pIC50 [3] was under 7.00.
In the case of `NC(=O)CCNC(=O)c1ccccc1Sc1ccc2c(/C=C/c3ccccn3)n[nH]c2c1`, the “% inhibition … of HUVEC” value [1] was 8% and the “% inhibition … of HUVEC” value [2] was 18%.
`O=C(O)CNC(=O)CCNC(=O)c1ccccc1Sc1ccc2c(/C=C/c3ccccn3)n[nH]c2c1` was tested, and the “% inhibition … of HUVEC” value [1] was 49% and the “% inhibition … of HUVEC” value [2] was −9%.
`O=C(NCc1ccc(F)cc1Cl)c1ccccc1Sc1ccc2c(/C=C/c3ccccn3)n[nH]c2c1` was tested, and the “% inhibition” value was −7%.
In the case of `COC1C=CC(CNC(=O)c2ccccc2Sc2ccc3c(/C=C/c4ccccn4)n[nH]c3c2)(OC)O1` (centres unmarked), the “% inhibition” value was 0%.
With `Cc1cccnc1NC(=O)c1ccccc1Sc1ccc2c(/C=C/c3ccccn3)n[nH]c2c1` the “% inhibition” value was −18%.
`O=C(NCCc1ccccc1F)c1ccccc1Sc1ccc2c(/C=C/c3ccccn3)n[nH]c2c1` was tested, and the “% inhibition” value was 2%.
In the case of `CSc1ccc(NC(=O)c2ccccc2Sc2ccc3c(/C=C/c4ccccn4)n[nH]c3c2)cc1`, the “% inhibition” value was −7%.
With `CCOC(CCCNC(=O)c1ccccc1Sc1ccc2c(/C=C/c3ccccn3)n[nH]c2c1)OCC` the “% inhibition” value was −11%.
In the case of `COC(=O)c1ccc(NC(=O)c2ccc3c(-c4nc5ccccc5[nH]4)n[nH]c3c2)o1` [drawing 608], the “% inhibition … of HUVEC” value [1] was 38% and the “% inhibition … of HUVEC” value [2] was 2%.
For `CC(=O)N1CCN(C(=O)c2ccc3c(-c4nc5ccccc5[nH]4)n[nH]c3c2)CC1`, the “% inhibition … of HUVEC” value [4] was 5%, the “% inhibition … of HUVEC” value [5] was 7% and the “% inhibition … of HUVEC” value [6] was 23%.
In the case of `O=C(N[C@H]1CC[C@H](O)CC1)c1ccccc1Sc1ccc2c(/C=C/c3ccccn3)n[nH]c2c1`, the “% inhibition” value was 18%.
With `O=C(NCC(F)(F)C(F)(F)F)c1ccccc1Sc1ccc2c(/C=C/c3ccccn3)n[nH]c2c1` the “% inhibition” value was −22%.
For `NS(=O)(=O)c1ccc(CCNC(=O)c2ccccc2Sc2ccc3c(/C=C/c4ccccn4)n[nH]c3c2)cc1`, the “% inhibition … of HUVEC” value [1] was 26% and the “% inhibition … of HUVEC” value [2] was 37%.
In the case of `O=C(Nc1ccc(O)cc1Cl)c1ccccc1Sc1ccc2c(/C=C/c3ccccn3)n[nH]c2c1`, the “% inhibition” value was 7%.
Compound `Nc1cccc(C(=O)c2ccc3c(/C=N/n4cccc4)n[nH]c3c2)c1` [Example 44] has a pIC50 (read-out: HUVEC IC50) of under 6.15.
For `CCC(CC)CCCC(C)NC(=O)c1ccccc1Sc1ccc2c(/C=C/c3ccccn3)n[nH]c2c1` (centres unmarked), the “% inhibition … of HUVEC” value [1] was 3% and the “% inhibition … of HUVEC” value [2] was 15%.
`CCCCC(CO)NC(=O)c1ccccc1Sc1ccc2c(/C=C/c3ccccn3)n[nH]c2c1` (centres unmarked) was tested, and the “% inhibition” value was −28%.
`O=C(NNc1ccccn1)c1ccccc1Sc1ccc2c(/C=C/c3ccccn3)n[nH]c2c1` [drawing 760] was tested, and the “% inhibition … of HUVEC” value [1] was 32% and the “% inhibition … of HUVEC” value [2] was 92%.
In the case of `CC(C)c1ccccc1NC(=O)c1ccccc1Sc1ccc2c(/C=C/c3ccccn3)n[nH]c2c1`, the “% inhibition” value was −30%.
For `O=C(Nc1ccncn1)c1ccccc1Sc1ccc2c(/C=C/c3ccccn3)n[nH]c2c1`, the “% inhibition” value was −10%.
`C#CCNC(=O)c1ccccc1Sc1ccc2c(/C=C/c3ccccn3)n[nH]c2c1` [drawing 1123] was tested, and the “% inhibition” value was 9%.
For `O=C(Nc1cccc2ncccc12)c1ccccc1Sc1ccc2c(/C=C/c3ccccn3)n[nH]c2c1`, the “% inhibition” value was −37%.
In the case of `CCC(C)c1ccc(NC(=O)c2ccccc2Sc2ccc3c(/C=C/c4ccccn4)n[nH]c3c2)cc1` (centres unmarked), the “% inhibition” value was 81%.
In the case of `O=C(Nc1ccc2[nH]ncc2c1)c1ccc2c(-c3nc4ccccc4[nH]3)n[nH]c2c1`, the “% inhibition … of HUVEC” value [4] was 28%, the “% inhibition … of HUVEC” value [5] was −1% and the “% inhibition … of HUVEC” value [6] was 80%.
In the case of `NC(=O)c1[nH]cnc1NC(=O)c1ccccc1Sc1ccc2c(/C=C/c3ccccn3)n[nH]c2c1`, the “% inhibition” value was −1%.
`N#Cc1c(NC(=O)c2ccccc2Sc2ccc3c(/C=C/c4ccccn4)n[nH]c3c2)sc2c1CCC2` was tested, and the “% inhibition” value was −9%.
